From PubChem BioAssay (NCI) come the findings set out here.

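In this assay, cells in 96-well plates receive the compound at five concentrations for 48 hours. Endpoints are linearly interpolated between the surrounding concentrations. The concentration for 50% growth inhibition is given as GI50. TGI: total growth inhibition.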 Some results are limits rather than exact numbers.

Test systems include A549 NSCLC; HCT-116 colon; HOP-62 NSCLC; MDA-MB-435; RXF 393 renal; SF-295 CNS; SNB-75 CNS; T-47D breast; UACC-62 melanoma; SK-OV-3 ovarian.
Experiment in all cases: inhibition of tumour cell growth, NCI panel, 48 h

Take `Cn1cc(S(=O)(=O)N2CCC3=Cc4c(cnn4-c4ccc(F)cc4)C[C@]3(C(=O)c3cc(C(F)(F)F)ccn3)C2)cn1`: the GI50 is 39.7 µM in the assay with A549 NSCLC; 11.1 µM in the assay on HCT-116 colon; 43 µM in the assay on HOP-62 NSCLC; over 100 µM in the assay with MDA-MB-435; 5.19 µM in the assay on RXF 393 renal; over 100 µM in the assay on SF-295 CNS. Also, the GI50 in the assay on SNB-75 CNS was over 100 µM; in the assay on T-47D breast, 13.3 µM; in the assay with UACC-62 melanoma it was 29.1 µM. In addition, the TGI in the assay on A549 NSCLC, in the assay with HCT-116 colon, in the assay on HOP-62 NSCLC, in the assay with MDA-MB-435, with RXF 393 renal and in the assay with SF-295 CNS was over 100 µM each time. Besides, the TGI in the assay on SNB-75 CNS, with T-47D breast and in the assay on UACC-62 melanoma was over 100 µM in each case.

`COc1ccc(-c2noc(N)c2-c2cc(OC)c3c(c2)OCO3)cc1`: the GI50 with A549 NSCLC is 3.13 µM; with HCT-116 colon, 2.4 µM; in the assay with HOP-62 NSCLC it was 3.19 µM; in the assay on RXF 393 renal, 2.6 µM; in the assay on SF-295 CNS, 2.64 µM; in the assay with SK-OV-3 ovarian it was 4.54 µM. For the same compound, the GI50 in the assay with SNB-75 CNS was 1.74 µM; in the assay on T-47D breast, 3.61 µM; in the assay on UACC-62 melanoma it was 4.22 µM. The TGI with A549 NSCLC was over 100 µM; in the assay with HCT-116 colon it was over 48.3 µM; in the assay with HOP-62 NSCLC, over 100 µM; in the assay with RXF 393 renal, 15 µM; in the assay on SF-295 CNS it was 28.6 µM; with SK-OV-3 ovarian it was over 38.3 µM. Also, the TGI is 7.03 µM with SNB-75 CNS, over 54.8 µM in the assay with T-47D breast and over 100 µM with UACC-62 melanoma.

Regarding `N#CC(C#N)=C1CCCOc2c1ccc1ccccc21`, the GI50 in the assay on A549 NSCLC is over 100 µM; in the assay with HCT-116 colon, over 100 µM; in the assay on HOP-62 NSCLC, 79.5 µM; in the assay with MDA-MB-435 it was over 100 µM; in the assay with RXF 393 renal it was over 100 µM; in the assay on SF-295 CNS, over 100 µM. Also, the GI50 in the assay on SK-OV-3 ovarian, with T-47D breast and with UACC-62 melanoma was over 100 µM in each case. In addition, the TGI with A549 NSCLC, in the assay with HCT-116 colon, in the assay on HOP-62 NSCLC, in the assay on MDA-MB-435, in the assay on RXF 393 renal and in the assay with SF-295 CNS was over 100 µM each time. The TGI in the assay with SK-OV-3 ovarian, in the assay with T-47D breast and in the assay on UACC-62 melanoma was over 100 µM throughout.

On to `CNCCn1c(=O)c2cc(OC)c(OC)cc2c2cnc3cc4c(cc3c21)OCO4`, for which the GI50 was under 0.01 µM in the assay on A549 NSCLC; under 0.01 µM with HCT-116 colon; under 0.01 µM in the assay with HOP-62 NSCLC; 0.0189 µM in the assay on MDA-MB-435; under 0.01 µM in the assay with RXF 393 renal; under 0.01 µM in the assay on SF-295 CNS. In addition, the values for the GI50 with SK-OV-3 ovarian, in the assay with SNB-75 CNS and with T-47D breast were under 0.0104 µM, under 0.01 µM and under 0.01 µM, respectively. Also, the TGI was 1.31 µM in the assay on A549 NSCLC; 0.135 µM with HCT-116 colon; 1.61 µM in the assay on HOP-62 NSCLC; 2.02 µM with MDA-MB-435; 0.0352 µM with RXF 393 renal; under 0.0155 µM in the assay on SF-295 CNS. The TGI in the assay on SK-OV-3 ovarian came to 1.82 µM; in the assay on SNB-75 CNS, 0.0658 µM; in the assay on T-47D breast, 1.48 µM.

On to `COc1ccc2c(c1)C(C)Cc1c(ncnc1-n1cnc3ccccc31)N2C` (stereo unspecified), for which the GI50 is 0.642 µM in the assay with A549 NSCLC; 0.494 µM with HCT-116 colon; 0.638 µM in the assay with HOP-62 NSCLC; 0.2 µM in the assay on MDA-MB-435; 0.292 µM with SF-295 CNS; 0.429 µM in the assay on SK-OV-3 ovarian. Also, the GI50 is 0.432 µM in the assay with T-47D breast and 0.735 µM in the assay with UACC-62 melanoma. In addition, the TGI is 16.6 µM with A549 NSCLC; 12.7 µM in the assay on HCT-116 colon; 25 µM in the assay with HOP-62 NSCLC; 0.605 µM in the assay on MDA-MB-435; 10.2 µM in the assay with SF-295 CNS; 16 µM with SK-OV-3 ovarian. Besides, the TGI in the assay with T-47D breast was 64.6 µM; in the assay with UACC-62 melanoma, 21.2 µM.

Consider `CN(C)CCNc1nc2ccccc2c2c(=O)c3cc(F)ccc3sc12`, for which the GI50 is 2.1 µM in the assay with A549 NSCLC; 1.58 µM in the assay on HCT-116 colon; 1.89 µM with HOP-62 NSCLC; 1.66 µM in the assay on MDA-MB-435; 1.45 µM in the assay on RXF 393 renal; 1.76 µM in the assay with SF-295 CNS. The GI50 in the assay on SNB-75 CNS is 1.45 µM; in the assay with UACC-62 melanoma, 1.73 µM. For the same compound, the TGI in the assay with A549 NSCLC came to 4.83 µM; in the assay with HCT-116 colon, 3.08 µM; in the assay with HOP-62 NSCLC it was 3.93 µM; in the assay with MDA-MB-435, 3.06 µM; in the assay with RXF 393 renal, 2.83 µM; in the assay on SF-295 CNS it was 3.22 µM. Besides, the TGI is 2.8 µM with SNB-75 CNS and 3.18 µM in the assay with UACC-62 melanoma.

In the case of `C1=NC(N(Cc2ccccc2)Cc2ccccc2)N(Cc2ccccc2)N1` (stereo unspecified), the TGI was determined as 37.3 µM in the assay with A549 NSCLC; 21.3 µM with HCT-116 colon; 32.7 µM in the assay on HOP-62 NSCLC; 30.4 µM in the assay with RXF 393 renal; 29.6 µM in the assay with SF-295 CNS; 67.2 µM in the assay on SK-OV-3 ovarian. In addition, the values for the TGI with SNB-75 CNS and with UACC-62 melanoma were 62.8 µM and 27.2 µM, respectively.

As for `CCc1nc(Cl)c(Cl)c(Cl)n1`, the TGI in the assay on A549 NSCLC, in the assay on HOP-62 NSCLC, in the assay with MDA-MB-435, in the assay with RXF 393 renal, with SF-295 CNS and in the assay with SK-OV-3 ovarian was over 100 µM in each case. The TGI with SNB-75 CNS and in the assay with UACC-62 melanoma was over 100 µM in each case.

Regarding `Cc1ccc2[c](c1)[Sn]([c]1ccccc1)([c]1ccccc1)[c]1cc(C)ccc1N2C`, the GI50 in the assay with A549 NSCLC is over 100 µM; with HCT-116 colon, 20.9 µM; with HOP-62 NSCLC, over 100 µM; in the assay with RXF 393 renal, 11.3 µM; with SF-295 CNS, over 100 µM; in the assay on SK-OV-3 ovarian, over 100 µM. Besides, the figures for the GI50 in the assay on SNB-75 CNS and with UACC-62 melanoma were over 100 µM and 20.9 µM, respectively. Moreover, the TGI in the assay with A549 NSCLC is over 100 µM; with HCT-116 colon it was over 100 µM; in the assay on HOP-62 NSCLC, over 100 µM; in the assay with RXF 393 renal it was 31.8 µM; in the assay with SF-295 CNS, over 100 µM; in the assay on SK-OV-3 ovarian, over 100 µM. For the same compound, the TGI in the assay with SNB-75 CNS and in the assay with UACC-62 melanoma was over 100 µM throughout.
